Results taken from paper PMC10571957, “αV-Integrin-Dependent Inhibition of Glioblastoma Cell Migration, Invasion and Vasculogenic Mimicry by the uPAcyclin Decapeptide” (Cancers, 2023).
Where “and” joins values, the source holds several entries; their conditions need not be identical. Equal values may be shown once.

Assays:
[1] = system: U87-MG cells (αV integrin); assay: FITC-uPAcyclin receptor binding/competition, U87-MG; parameters: species or system human; settings: for FITC-uPAcyclin binding, single values: T-test sheet, single replicates of all EXPTs
Protocol: The U87-MG, U251-MG, and U138-MG cell lines were harvested and acid-treated, as described. Then, 2 × 10^6 cells/sample were exposed for 30 min at 4 °C to uPAcyclin or S-uPAcyclin at the indicated concentrations, or with the following antibodies: VNR147 monoclonal anti-αV integrin (Chemicon Int. Inc., Temecula, CA, USA), polyclonal anti-αV (Millipore, Burlington, MA, USA), monoclonal anti-α2 (Chemicon Int. Inc., Temecula, CA, USA), polyclonal anti-actin (Sigma-Aldrich, St. Louis, MO, USA), monoclonal anti-GAPDH (Abcam, Cambridge, UK), and purified vitronectin (VN, Corning, Glendale, AZ, USA). The cells were subsequently incubated with 50 nM FITC-uPAcyclin for 2 h at 4 °C, as described. At the end of incubation, the cells were washed and the cell surface-associated fluorescence was determined using a fluorimeter (VICTOR^TM X3-PerkinElmer, Waltham, MA, USA). All binding assays were performed three times, with duplicate samples, and analyzed as described in Section 2.11.
Figure 2 αV expression of U87-MG, U251-MG, and U138-MG GBM cells and specific binding of FITC-uPAcyclin. (A) U87-MG, U251-MG, U138-MG, HEK-293, and HEK-293/αV total cell lysates were subjected to Western blotting and probed using polyclonal anti-αV or polyclonal anti-actin as loading control. (B) A total of 2 × 10^6 U87-MG, U251-MG, U138-MG, HEK-293/αV, or HEK-293 cells were pre-incubated for 30 min at 4 °C with 500 nM uPAcyclin and further exposed to 50 nM FITC-uPAcyclin for 2 h at 4 °C. At the end of the incubation, the unbound material was washed and cell-associated FITC-uPAcyclin was quantitated by a fluorimeter. The net value of cell-surface-associated fluorescence, corresponding to the specific binding, is shown. (C) A total of 2 × 10^6 U87-MG, U251-MG, and U138-MG cells were pre-incubated for 30 min at 4 °C with increasing concentrations of unlabeled uPAcyclin and then assayed for binding of FITC-uPAcyclin, for 2 h at 4 °C. Cell-surface-associated fluorescence, as percentage of the samples […], is shown. (D) U87-MG cells were pre-incubated with uPAcyclin (1 pM, 100 nM), scrambled uPAcyclin (S-uPAcyclin, 1 pM and 100 nM)), vitronectin (200 µM), anti-αv polyclonal (anti-αV Pclonal, 5 µg/mL) or monoclonal (anti-αV MoAb, 5 µg/mL) or anti-α2 monoclonal (anti-α2 MoAb, 1 µg/mL), polyclonal anti-actin, and monoclonal anti GAPDH. Then, cells were treated as in B (* p-value < 0.05; *** p-value < 0.001).

U138-MG cells = assay: Boyden chamber migration (chemotaxis), U138-MG; assay type: cell-based, human; settings: for migration, % of basal, average 2 expts: mean of 2 expts; for migration, % of basal, average expt 1: mean of expt 1; for migration, % of basal, average expt 2: mean of expt 2; for migration, % of basal, T-test list: single replicates of both expts
Protocol: (§1) The migration and invasion assays were performed using Boyden chambers and 8 µm pore size PVP-free filters coated with 50 µg/mL of collagen type VI (Sigma), as previously described. For the invasion assays, collagen-coated filters were further coated with 50 µg/mL Matrigel^TM (Sigma). Briefly, 11 × 10^4 U87-MG, 4 × 10^4 U251-MG, or 4 × 10^4 U138-MG/sample were pre-treated for 40 min at 37 °C with the indicated effectors. Then, the cells were allowed to migrate for 3 h or to invade for 5 h at 37 °C toward 5% FBS in DMEM/0.1% BSA. At the end of both assays, the cells on the lower filter surface were fixed, stained with haematoxylin, and counted under an optical microscope (Zeiss Axiophot, Carl Zeiss, Milan, Italy) at 20× magnification. The migration and invasion experiments were conducted in triplicate for U87-MG and in duplicate for U251-MG and U138-MG. The migrated or invaded cells were reported as percentage of basal migration or invasion in the presence of DMEM/0.1% BSA, taken as 100%, and analyzed as reported in Section 2.11.
(§2) Figure 3 Inhibition of U87-MG, U251-MG, and U138-MG GBM cellular migration by uPAcyclin. Quantitative analysis of U87-MG (A), U251-MG (B), and U138-MG (C) directional migration. A total of 11 × 10^4 U87-MG/sample or 4 × 10^4 U251-MG or U138-MG/sample were pre-treated for 40 min at 37 °C with uPAcyclin or S-peptide at the indicated concentrations, anti-αV polyclonal (anti-αV Pclonal) or monoclonal (anti-αV MoAb) antibody, or anti-GAPDH, and anti-α2 monoclonal antibody (anti-α2 MoAb), and then assayed in Boyden chambers at 37 °C, either for basal (BSA) or directional 5% FBS-dependent migration for 3 h at 37 °C. At the end of incubation, the filters were processed as described in Methods. Basal migration was taken as 100% and all values were calculated relative to that (* p-value < 0.05; ** p-value < 0.005; *** p-value < 0.001).

U251-MG cells = assay: Boyden chamber migration (chemotaxis), U251-MG; assay type: cell-based, human; settings: for migrated cells n°/field / migration, % of basal / migration, % of basal, average 2 expts / migration, % of basal, average expt 1 / migration, % of basal, average expt 2 / migration, % of basal, T-test list: sheet data scrambled; for migration, % of basal, average 2 expts: mean of 2 expts; for migration, % of basal, average expt 1: mean of expt 1; for migration, % of basal, average expt 2: mean of expt 2; for migration, % of basal, T-test list: single replicates
Protocol: as §1, §2

[2] = 1 nM, 5% FBS, 3 h, expt 1, duplicates
[3] = 1 nM, 5% FBS, 3 h, expt 2, duplicates
[4] = 100 nM, 5% FBS, 3 h, expt 1, duplicates
[5] = 100 nM, 5% FBS, 3 h, expt 2, duplicates

Ac-K^1P[ESPPEELK^10]-NH2 (sidechain bridge or staple) [uPAcyclin]
FITC-uPAcyclin binding, single values ([1]; competitor 1 pM): 70 and 77 and 74 and 75 | FITC-uPAcyclin binding, single values ([1]; competitor 100 nM): 38 and 42 and 49 and 44 and 54 | Kdapp ([1]; unlabeled uPAcyclin vs FITC-uPAcyclin, U87-MG, 4 °C): low nanomolar range | inhibition of migration (U138-MG cells; 1 nM, U138-MG, 5% FBS, 3 h): 70–80% | migrated cells n°/field (U138-MG cells; [2]): 8 cells n°/field and 7 cells n°/field | migration, % of basal (U138-MG cells; [2]): 114% and 100% | migrated cells n°/field (U138-MG cells; [3]): 8 cells n°/field and 10 cells n°/field | migration, % of basal (U138-MG cells; [3]): 100% and 125% | migration, % of basal, average 2 expts (U138-MG cells; 1 nM, 5% FBS, 3 h): 110% | migration, % of basal, average expt 1 (U138-MG cells; 1 nM, 5% FBS, 3 h): 107% | migration, % of basal, average expt 2 (U138-MG cells; 1 nM, 5% FBS, 3 h): 113% | migration, % of basal, T-test list (U138-MG cells; 1 nM): 114 and 100 and 125 | migration, in words (U138-MG cells; 100 nM, U138-MG, 5% FBS, 3 h): below background levels | migrated cells n°/field (U138-MG cells; [4]): 7 cells n°/field and 5 cells n°/field | migration, % of basal (U138-MG cells; [4]): 100% and 71% | migrated cells n°/field (U138-MG cells; [5]): 6 cells n°/field and 7 cells n°/field | migration, % of basal (U138-MG cells; [5]): 75% and 88% | migration, % of basal, average 2 expts (U138-MG cells; 100 nM, 5% FBS, 3 h): 84% | migration, % of basal, average expt 1 (U138-MG cells; 100 nM, 5% FBS, 3 h): 86% | migration, % of basal, average expt 2 (U138-MG cells; 100 nM, 5% FBS, 3 h): 82% | migration, % of basal, T-test list (U138-MG cells; 100 nM): 100 and 71 and 75 and 88 | inhibition of migration (U251-MG cells; 1 nM, U251-MG, 5% FBS, 3 h): 70–80% | migration, % of the basal, average all expts (U251-MG cells; 1 nM): 99% | migration, in words (U251-MG cells; 100 nM, U251-MG, 5% FBS, 3 h): below background levels | migration, % of the basal, average all expts (U251-MG cells; 100 nM): 83% | migrated cells n°/field (U251-MG cells; [4]): 12 cells n°/field and 13 cells n°/field | migration, % of basal (U251-MG cells; [4]): 86% and 93% | migrated cells n°/field (U251-MG cells; [5]): 27 cells n°/field and 21 cells n°/field | migration, % of basal (U251-MG cells; [5]): 123% and 95% | migration, % of basal, average 2 expts (U251-MG cells; 100 nM): 99.2955% | migration, % of basal, average expt 1 (U251-MG cells; 100 nM): 89.5% | migration, % of basal, average expt 2 (U251-MG cells; 100 nM): 109.091% | migration, % of basal, T-test list (U251-MG cells; 100 nM): 86 and 93 and 95

Ac-PS[EELKPEPK]-NH2 (sidechain bridge or staple) [S-uPAcyclin, scrambled control peptide]
competition with FITC-uPAcyclin binding, in words ([1]; U87-MG, S-uPAcyclin 1 pM and 100 nM, vitronectin 200 µM, anti-αV 5 µg/mL, anti-α2 1 µg/mL): retains very little binding ability | FITC-uPAcyclin binding, single values ([1]; competitor 1 pM, listed as Scrambled uPAcyclin): 85 and 88 and 80 and 75 | FITC-uPAcyclin binding, single values ([1]; competitor 100 nM, listed as Scrambled uPAcyclin): 74 and 80 and 82 and 75 | migration, % of the basal, average all expts (U251-MG cells; 1 nM): 176% | migrated cells n°/field (U251-MG cells; [2]): 28 cells n°/field and 26 cells n°/field | migration, % of basal (U251-MG cells; [2]): 200% and 186% | migrated cells n°/field (U251-MG cells; [3]): 32 cells n°/field and 38 cells n°/field | migration, % of basal (U251-MG cells; [3]): 145% and 172% | migration, % of basal, average 2 expts (U251-MG cells; 1 nM): 176.045% | migration, % of basal, average expt 1 (U251-MG cells; 1 nM): 193% | migration, % of basal, average expt 2 (U251-MG cells; 1 nM): 159.091% | migration, % of basal, T-test list (U251-MG cells; 1 nM): 200 and 186 and 145 and 172 | migration, % of the basal, average all expts (U251-MG cells; 100 nM): 157% | migrated cells n°/field (U251-MG cells; [4]): 23 cells n°/field and 20 cells n°/field | migration, % of basal (U251-MG cells; [4]): 164% and 143% | migrated cells n°/field (U251-MG cells; [5]): 35 cells n°/field and 36 cells n°/field | migration, % of basal (U251-MG cells; [5]): 159% and 163% | migration, % of basal, average 2 expts (U251-MG cells; 100 nM): 157.432% | migration, % of basal, average expt 1 (U251-MG cells; 100 nM): 153.5% | migration, % of basal, average expt 2 (U251-MG cells; 100 nM): 161.364% | migration, % of basal, T-test list (U251-MG cells; 100 nM): 164 and 143 and 159
